This experiment concerns the target T1, Human full-length diacylglycerol:acylCoA acyltransferase 1 (DGAT-1) (Homo sapiens, UniProt O75907).
T1 sequence (O75907 1-488): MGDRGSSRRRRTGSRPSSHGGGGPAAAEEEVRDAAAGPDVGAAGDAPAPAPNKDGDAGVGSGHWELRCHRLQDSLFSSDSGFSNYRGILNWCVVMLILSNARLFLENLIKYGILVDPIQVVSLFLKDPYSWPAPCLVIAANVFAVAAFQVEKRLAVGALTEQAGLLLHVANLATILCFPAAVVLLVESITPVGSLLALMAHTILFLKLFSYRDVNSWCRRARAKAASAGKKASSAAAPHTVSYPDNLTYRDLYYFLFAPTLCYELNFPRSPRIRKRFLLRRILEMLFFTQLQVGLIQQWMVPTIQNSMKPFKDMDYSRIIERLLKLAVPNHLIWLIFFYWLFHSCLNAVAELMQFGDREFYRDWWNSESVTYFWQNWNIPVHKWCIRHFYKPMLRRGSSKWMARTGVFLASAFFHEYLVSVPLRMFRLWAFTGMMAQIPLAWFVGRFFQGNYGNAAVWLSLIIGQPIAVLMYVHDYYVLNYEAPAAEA
Kind of experiment: In vitro assay for inhibition of DGAT-1 activity (DGAT 1 Reduced Microsome Multidose Assay). To be noted: average where n > 1.

Setting [1] is: Trial 4 Human IC50, Trial 4: eight concentrations of inhibitor, microsomes 5 μg/mL.
Setting [2] is: Trial 1 Human IC50, Trial 1: as Trial 4 except microsomes at 25 μg/mL instead of 5 μg/mL.
[3] abbreviates: Trial 2 Human IC50, Trial 2: as Trial 4 except eleven concentrations of inhibitor instead of eight.
The mark [4] stands for this setting: Trial 3 Human IC50, Trial 3: as Trial 2 except compounds serially diluted in a different laboratory.

Method: Human full-length diacylglycerol:acylCoA acyltransferase 1 (DGAT-1) was expressed in Sf9 insect cells which are then lysed and a crude membrane fraction (105,000×g pellet) was prepared.
Inhibitors in DMSO were pre-incubated with membranes before initiating the DGAT-1 reaction by the addition of decanoylCoA. […] The inhibitors were present at a range of eight concentrations to generate an apparent IC50 for each compound. […] Specifically, the eight concentrations used were 3 μM, 1 μM, 300 nM, 100 nM, 30 nM, 10 nM, 3 nM and 1 nM.
The reactions were allowed to proceed for 1.5 hours at room temperature and then terminated by the addition of 20 μl of EDTA (40 mM). Reaction mixture is then mixed by trituration with 30 μl of Microscint™-E (Perkin Elmer). […] Four separate trials were conducted. The method of analysis of Trial 1 was the same as Trial 4 (described above) except microsomes were utilized at 25 μg/mL instead of 5 μg/mL. The method of analysis of Trial 2 was the same as Trial 4 (described above) except eleven (11) concentrations of inhibitor were employed instead of eight (8). The method of analysis of Trial 3 was the same as Trial 2 except the compounds were serially diluted in a different laboratory.
Where this DGAT-1 inhibition assay was performed on a compound more than once, an average is provided for that compound.

`C[C@@H]1CN(c2ccc([C@@H](O)C(C)(C)C)cc2)C(=O)c2c(N)ncnc2O1` [Example 1AC] gave an IC50 under setting [1] of 55.4 nM.

Take `CCN(CCCCO)C(=O)C[C@H]1CC[C@H](c2ccc(N3CCOc4ncnc(N)c4C3=O)cc2)CC1` [Example 6N]: under setting [2], the midpoint of inhibition, the IC50, lay at 37.5 nM.

In turn, `CC1CCCN1C(=O)C[C@H]1CC[C@H](c2ccc(N3CCOc4ncnc(N)c4C3=O)cc2)CC1` (stereo partly drawn) [Example 6AI] came in with an IC50 under setting [2] of 80.4 nM. This IC50 is about 2.1-fold higher than that of the compound before.

For `Cc1cc(CN(C)C(=O)C[C@H]2CC[C@H](c3ccc(N4CCOc5ncnc(N)c5C4=O)cc3)CC2)ccn1` [Example 6AZ], the midpoint of inhibition under setting [2], the IC50, lay at 67 nM. This IC50 and that of the compound before are within 1.5-fold of each other.

Regarding `COC(=O)C(C)(C)c1ccc(N2C[C@@H](C)Oc3ncnc(N)c3C2=O)cc1` [Example 1X], under setting [1], the IC50 came to 32.5 nM.

Under setting [2], `Nc1ncnc2c1C(=O)N(c1ccc([C@H]3CC[C@H](CC(=O)N4CCCC4CO)CC3)cc1)CCO2` (stereo partly drawn) [Example 6X] displayed an IC50 of 100 nM. That is a sub-micromolar value.

In the case of `CCN(C(=O)C[C@H]1CC[C@H](c2ccc(N3CCOc4ncnc(N)c4C3=O)cc2)CC1)C(C)(C)CO` [Example 6U], under setting [2], half-maximal inhibition (IC50) was put at 129 nM.

The compound `C[C@@H]1CN(c2ccc([C@H](O)C(C)(C)C)cc2)C(=O)c2c(N)ncnc2O1` [Example 1AD] had an IC50 under setting [1] of 22.6 nM.

`CC1(CO)CCCN(C(=O)C[C@H]2CC[C@H](c3ccc(N4CCOc5ncnc(N)c5C4=O)cc3)CC2)C1` (stereo partly drawn) [Example 6AN]: the midpoint of inhibition under setting [2], the IC50, lay at 71.3 nM.

In turn, `Cc1ccc(N2C[C@@H](C)Oc3ncnc(N)c3C2=O)cc1` [Example 1P, (8R)-4-amino-8-methyl-6-(4-methylphenyl)-7,8-dihydropyrimido[5,4-f]-[1,4]oxazepin-5(6H)-one] returned an IC50 under setting [1] of 52.8 nM. That is a double-digit nanomolar value.

Compound `COC(=O)c1ccc(N2C[C@@H](C)Oc3ncnc(N)c3C2=O)cc1` [Example 1J, Methyl 4-[(8R)-4-amino-8-methyl-5-oxo-7,8-dihydropyrimido[5,4-f][1,4]oxazepin-6(5H)-yl]benzoate] returned an IC50 under setting [1] of 161 nM.

The compound `Nc1ncnc2c1C(=O)N(c1ccc([C@H]3CC[C@H](CC(=O)N4CC(F)C4)CC3)cc1)CCO2` [Example 6AM] yielded an IC50 under setting [2] of 139 nM.

Under setting [2], `CC(=O)N1CCN(C(=O)C[C@H]2CC[C@H](c3ccc(N4CCOc5ncnc(N)c5C4=O)cc3)CC2)CC1` [Example 6Y] showed an IC50 of 167 nM.

`C[C@@H]1CN(c2ccc(C3CC3)cc2)C(=O)c2c(N)ncnc2O1` [Example 1U] gave an IC50 under setting [1] of 19.9 nM.

`CC(c1cccnc1)N(C)C(=O)C[C@H]1CC[C@H](c2ccc(N3CCOc4ncnc(N)c4C3=O)cc2)CC1` (stereo partly drawn) [Example 6AQ] yielded an IC50 under setting [2] of 87.5 nM.

Regarding `Cc1ocnc1C(=O)N1CCC(c2ccc(N3CCOc4ncnc(N)c4C3=O)cc2)CC1` [Example 7G], the IC50 was 88.2 nM under setting [3] and 290 nM under setting [4].

For `C[C@@H]1CN(c2ccc(C(O)(C(F)(F)F)C(F)(F)F)cc2)C(=O)c2c(N)ncnc2O1` [Example 1V], the IC50 under setting [1] amounted to 39.5 nM.

Turning to `CO[C@H]1CCN(C(=O)C[C@H]2CC[C@H](c3ccc(N4CCOc5ncnc(N)c5C4=O)cc3)CC2)C1` [Example 6E], under setting [2], the IC50 was found to be 72.1 nM.

With `Nc1ncnc2c1C(=O)N(c1ccc(C3CCN(C(=O)C4CCCO4)CC3)cc1)CCO2` (stereo not drawn) [Example 7X], the IC50 worked out at 88.4 nM under setting [3] and 157 nM under setting [4].

`C[C@@H]1CN(c2ccc(C(C)(C)C(F)(F)F)cc2)C(=O)c2c(N)ncnc2O1` [Example 1Z, (8R)-4-amino-8-methyl-6-[4-(2,2,2-trifluoro-1,1-dimethylethyl)phenyl]-7,8-dihydropyrimido[5,4-f][1,4]oxazepin-5(6H)-one]: it took 14.3 nM to reach half-maximal inhibition under setting [1] (IC50).

Under setting [2], `Nc1ncnc2c1C(=O)N(c1ccc([C@H]3CC[C@H](CC(=O)N4CCNC(=O)CC4)CC3)cc1)CCO2` [Example 6AL] returned an IC50 of 105 nM.

The compound `CC(C)Cc1ccc(N2C[C@@H](C)Oc3ncnc(N)c3C2=O)cc1` [Example 1Y, (8R)-4-amino-6-(4-isobutylphenyl)-8-methyl-7,8-dihydropyrimido[5,4-f]-[1,4]oxazepin-5(6H)-one] yielded an IC50 under setting [1] of 6.78 nM.

By IC50 is commonly meant the point on the concentration scale where inhibition reaches its midpoint. A high value points to lower potency.

The values above are taken from patent US20100204119A1, “4-AMINO-5-OXO-7,8-DIHYDROPYRIMIDO[5,4-F][1,4]OXAZEPIN-6(5H)-YL PHENYL DERIVATIVES” (Pfizer Inc, priority 2009, published 2010).
